How the values were obtained:
Conditions in all cases: 72 h
[1] = test system: Calu-3; experiment: relative viability EC50 (midpoint between 100% and the lowest measured viability); higher = less toxic
[2] = test system: Vero E6; experiment: as above
[3] = test system: U2OS; experiment: as above
[4] = test system: Caco-2; experiment: as above
[5] = test system: HepG2; experiment: as above
[6] = test system: Calu-3; experiment: cell viability relative to DMSO; higher = less toxic
[7] = test system: Vero E6; experiment: as above
[8] = test system: U2OS; experiment: as above
[9] = test system: Caco-2; experiment: as above
[10] = test system: HepG2; experiment: as above
[11] = test system: Calu-3; experiment: drug sensitivity score (DSS) for viability; higher = more toxic; extreme values may be limits of the assay
[12] = test system: Vero E6; experiment: as above
[13] = test system: U2OS; experiment: as above
[14] = test system: Caco-2; experiment: as above
[15] = test system: HepG2; experiment: as above

## CC(C)Oc1ccc2c(=O)c3cc(C(=O)O)ccc3oc2c1 [AH6809]
[1]
  relative viability EC50: > 10 µM
[2]
  relative viability EC50: > 10 µM
[3]
  relative viability EC50: > 10 µM
[4]
  relative viability EC50: > 10 µM
[5]
  relative viability EC50: > 10 µM
[6]; 1 nM
  cell viability: 112%
[6]; 10 nM
  cell viability: 111%
[6]; 100 nM
  cell viability: 96.9%
[6]; 1000 nM
  cell viability: 103%
[6]; 10000 nM
  cell viability: 104%
[7]; 1 nM
  cell viability: 96.5%
[7]; 10 nM
  cell viability: 102%
[7]; 100 nM
  cell viability: 95.3%
[7]; 1000 nM
  cell viability: 89.8%
[7]; 10000 nM
  cell viability: 98.9%
[8]; 1 nM
  cell viability: 104%
[8]; 10 nM
  cell viability: 105%
[8]; 100 nM
  cell viability: 107%
[8]; 1000 nM
  cell viability: 102%
[8]; 10000 nM
  cell viability: 95%
[9]; 1 nM
  cell viability: 97.6%
[9]; 10 nM
  cell viability: 100%
[9]; 100 nM
  cell viability: 93.2%
[9]; 1000 nM
  cell viability: 93.6%
[9]; 10000 nM
  cell viability: 85.2%
[10]; 1 nM
  cell viability: 96.6%
[10]; 10 nM
  cell viability: 97.1%
[10]; 100 nM
  cell viability: 91.5%
[10]; 1000 nM
  cell viability: 93.6%
[10]; 10000 nM
  cell viability: 94.5%
[11]
  drug sensitivity score: 0
[12]
  drug sensitivity score: 0
[13]
  drug sensitivity score: 0
[14]
  drug sensitivity score: 0.3
[15]
  drug sensitivity score: 0

## CN(CC[C@@H](Oc1ccc(-c2ccccc2)cc1)c1ccc(F)cc1)CC(=O)O [ALX-5407]
[1]
  relative viability EC50: > 10 µM
[2]
  relative viability EC50: > 10 µM
[3]
  relative viability EC50: > 10 µM
[4]
  relative viability EC50: > 10 µM
[5]
  relative viability EC50: > 10 µM
[6]; 1 nM
  cell viability: 103%
[6]; 10 nM
  cell viability: 85.9%
[6]; 100 nM
  cell viability: 98.6%
[6]; 1000 nM
  cell viability: 98.3%
[6]; 10000 nM
  cell viability: 104%
[7]; 1 nM
  cell viability: 101%
[7]; 10 nM
  cell viability: 99.1%
[7]; 100 nM
  cell viability: 97.7%
[7]; 1000 nM
  cell viability: 100%
[7]; 10000 nM
  cell viability: 96.4%
[8]; 1 nM
  cell viability: 98.3%
[8]; 10 nM
  cell viability: 96.6%
[8]; 100 nM
  cell viability: 99%
[8]; 1000 nM
  cell viability: 93.8%
[8]; 10000 nM
  cell viability: 98.7%
[9]; 1 nM
  cell viability: 105%
[9]; 10 nM
  cell viability: 98.9%
[9]; 100 nM
  cell viability: 102%
[9]; 1000 nM
  cell viability: 94.8%
[9]; 10000 nM
  cell viability: 95.6%
[10]; 1 nM
  cell viability: 102%
[10]; 10 nM
  cell viability: 108%
[10]; 100 nM
  cell viability: 92.7%
[10]; 1000 nM
  cell viability: 95.7%
[10]; 10000 nM
  cell viability: 96.7%
[11]
  drug sensitivity score: 0
[12]
  drug sensitivity score: 0
[13]
  drug sensitivity score: 0
[14]
  drug sensitivity score: 0
[15]
  drug sensitivity score: 0

## CC(C)(C)c1ccc(S(=O)(=O)/C=C/C#N)cc1 [BAY-11-7085]
[1]
  relative viability EC50: 2.69 µM
[2]
  relative viability EC50: 2.35 µM
[3]
  relative viability EC50: 2.26 µM
[4]
  relative viability EC50: 2.1 µM
[5]
  relative viability EC50: 2 µM
[6]; 1 nM
  cell viability: 105%
[6]; 10 nM
  cell viability: 103%
[6]; 100 nM
  cell viability: 96%
[6]; 1000 nM
  cell viability: 97%
[6]; 10000 nM
  cell viability: 49.8%
[7]; 1 nM
  cell viability: 92.7%
[7]; 10 nM
  cell viability: 95.9%
[7]; 100 nM
  cell viability: 91.8%
[7]; 1000 nM
  cell viability: 90.3%
[7]; 10000 nM
  cell viability: -0.3%
[8]; 1 nM
  cell viability: 101%
[8]; 10 nM
  cell viability: 99%
[8]; 100 nM
  cell viability: 102%
[8]; 1000 nM
  cell viability: 89.1%
[8]; 10000 nM
  cell viability: -0.4%
[9]; 1 nM
  cell viability: 101%
[9]; 10 nM
  cell viability: 82.2%
[9]; 100 nM
  cell viability: 83.6%
[9]; 1000 nM
  cell viability: 91.8%
[9]; 10000 nM
  cell viability: 37.8%
[10]; 1 nM
  cell viability: 96.7%
[10]; 10 nM
  cell viability: 100%
[10]; 100 nM
  cell viability: 98.7%
[10]; 1000 nM
  cell viability: 85.2%
[10]; 10000 nM
  cell viability: -0.4%
[11]
  drug sensitivity score: 3.1
[12]
  drug sensitivity score: 7.1
[13]
  drug sensitivity score: 7.4
[14]
  drug sensitivity score: 4.8
[15]
  drug sensitivity score: 8

## Cc1oc2nc3c(c(NC(=O)CN4CCCC4=O)c2c1C)CCCC3 [BCI-540]
[1]
  relative viability EC50: > 10 µM
[2]
  relative viability EC50: > 10 µM
[3]
  relative viability EC50: > 10 µM
[4]
  relative viability EC50: > 10 µM
[5]
  relative viability EC50: > 10 µM
[6]; 1 nM
  cell viability: 90.2%
[6]; 10 nM
  cell viability: 101%
[6]; 100 nM
  cell viability: 94.4%
[6]; 1000 nM
  cell viability: 104%
[6]; 10000 nM
  cell viability: 107%
[7]; 1 nM
  cell viability: 93.2%
[7]; 10 nM
  cell viability: 93.8%
[7]; 100 nM
  cell viability: 99.5%
[7]; 1000 nM
  cell viability: 92.5%
[7]; 10000 nM
  cell viability: 110%
[8]; 1 nM
  cell viability: 100%
[8]; 10 nM
  cell viability: 99.8%
[8]; 100 nM
  cell viability: 97.8%
[8]; 1000 nM
  cell viability: 105%
[8]; 10000 nM
  cell viability: 101%
[9]; 1 nM
  cell viability: 94.4%
[9]; 10 nM
  cell viability: 99.2%
[9]; 100 nM
  cell viability: 99.8%
[9]; 1000 nM
  cell viability: 103%
[9]; 10000 nM
  cell viability: 101%
[10]; 1 nM
  cell viability: 88.7%
[10]; 10 nM
  cell viability: 100%
[10]; 100 nM
  cell viability: 98.5%
[10]; 1000 nM
  cell viability: 98%
[10]; 10000 nM
  cell viability: 94.3%
[11]
  drug sensitivity score: 0
[12]
  drug sensitivity score: 0
[13]
  drug sensitivity score: 0
[14]
  drug sensitivity score: 0
[15]
  drug sensitivity score: 0

## CC(C)(C)c1cc(O)c(C(C)(C)C)cc1O [BHQ]
[1]
  relative viability EC50: > 10 µM
[2]
  relative viability EC50: > 10 µM
[3]
  relative viability EC50: > 10 µM
[4]
  relative viability EC50: > 10 µM
[5]
  relative viability EC50: > 10 µM
[6]; 1 nM
  cell viability: 109%
[6]; 10 nM
  cell viability: 94%
[6]; 100 nM
  cell viability: 93.1%
[6]; 1000 nM
  cell viability: 97.9%
[6]; 10000 nM
  cell viability: 108%
[7]; 1 nM
  cell viability: 98.3%
[7]; 10 nM
  cell viability: 96%
[7]; 100 nM
  cell viability: 103%
[7]; 1000 nM
  cell viability: 96.6%
[7]; 10000 nM
  cell viability: 91.8%
[8]; 1 nM
  cell viability: 101%
[8]; 10 nM
  cell viability: 97.2%
[8]; 100 nM
  cell viability: 103%
[8]; 1000 nM
  cell viability: 99.1%
[8]; 10000 nM
  cell viability: 99.8%
[9]; 1 nM
  cell viability: 101%
[9]; 10 nM
  cell viability: 96.9%
[9]; 100 nM
  cell viability: 102%
[9]; 1000 nM
  cell viability: 95.7%
[9]; 10000 nM
  cell viability: 88.9%
[10]; 1 nM
  cell viability: 102%
[10]; 10 nM
  cell viability: 95.8%
[10]; 100 nM
  cell viability: 92.4%
[10]; 1000 nM
  cell viability: 97.9%
[10]; 10000 nM
  cell viability: 95.5%
[11]
  drug sensitivity score: 0
[12]
  drug sensitivity score: 0
[13]
  drug sensitivity score: 0
[14]
  drug sensitivity score: 0.1
[15]
  drug sensitivity score: 0

## Cc1cc(C(=CNc2ccc(Cl)cc2)C(=O)Nc2ccc(Cl)cc2)on1 [CCMI]
[1]
  relative viability EC50: > 10 µM
[2]
  relative viability EC50: > 10 µM
[3]
  relative viability EC50: > 10 µM
[4]
  relative viability EC50: > 10 µM
[5]
  relative viability EC50: > 10 µM
[6]; 1 nM
  cell viability: 104%
[6]; 10 nM
  cell viability: 100%
[6]; 100 nM
  cell viability: 105%
[6]; 1000 nM
  cell viability: 98.9%
[6]; 10000 nM
  cell viability: 105%
[7]; 1 nM
  cell viability: 98.7%
[7]; 10 nM
  cell viability: 101%
[7]; 100 nM
  cell viability: 98.7%
[7]; 1000 nM
  cell viability: 96.6%
[7]; 10000 nM
  cell viability: 98.1%
[8]; 1 nM
  cell viability: 103%
[8]; 10 nM
  cell viability: 93.3%
[8]; 100 nM
  cell viability: 97.8%
[8]; 1000 nM
  cell viability: 102%
[8]; 10000 nM
  cell viability: 99.4%
[9]; 1 nM
  cell viability: 98.4%
[9]; 10 nM
  cell viability: 93%
[9]; 100 nM
  cell viability: 104%
[9]; 1000 nM
  cell viability: 88%
[9]; 10000 nM
  cell viability: 100%
[10]; 1 nM
  cell viability: 95.6%
[10]; 10 nM
  cell viability: 96.3%
[10]; 100 nM
  cell viability: 96.9%
[10]; 1000 nM
  cell viability: 107%
[10]; 10000 nM
  cell viability: 95.7%
[11]
  drug sensitivity score: 0
[12]
  drug sensitivity score: 0
[13]
  drug sensitivity score: 0
[14]
  drug sensitivity score: 0
[15]
  drug sensitivity score: 0

## CCOC(=O)Nc1ccc2c(c1)N(C(=O)CN(CC)CC)c1ccccc1CC2 [CINPA-1]
[1]
  relative viability EC50: > 10 µM
[2]
  relative viability EC50: > 10 µM
[3]
  relative viability EC50: > 10 µM
[4]
  relative viability EC50: > 10 µM
[5]
  relative viability EC50: > 10 µM
[6]; 1 nM
  cell viability: 109%
[6]; 10 nM
  cell viability: 99.6%
[6]; 100 nM
  cell viability: 99.5%
[6]; 1000 nM
  cell viability: 91.9%
[6]; 10000 nM
  cell viability: 107%
[7]; 1 nM
  cell viability: 95.2%
[7]; 10 nM
  cell viability: 106%
[7]; 100 nM
  cell viability: 96.6%
[7]; 1000 nM
  cell viability: 100%
[7]; 10000 nM
  cell viability: 91%
[8]; 1 nM
  cell viability: 105%
[8]; 10 nM
  cell viability: 102%
[8]; 100 nM
  cell viability: 99.5%
[8]; 1000 nM
  cell viability: 97.6%
[8]; 10000 nM
  cell viability: 99.1%
[9]; 1 nM
  cell viability: 103%
[9]; 10 nM
  cell viability: 96.1%
[9]; 100 nM
  cell viability: 100%
[9]; 1000 nM
  cell viability: 100%
[9]; 10000 nM
  cell viability: 92.2%
[10]; 1 nM
  cell viability: 97.7%
[10]; 10 nM
  cell viability: 106%
[10]; 100 nM
  cell viability: 99.1%
[10]; 1000 nM
  cell viability: 96.7%
[10]; 10000 nM
  cell viability: 93.7%
[11]
  drug sensitivity score: 0
[12]
  drug sensitivity score: 0
[13]
  drug sensitivity score: 0
[14]
  drug sensitivity score: 0
[15]
  drug sensitivity score: 0

Source: the supplement of paper PMC13380429
